Usually Kd stands for the equilibrium constant for the complex coming apart.

“Also recorded” adds a separate entry of the source. *1 amine or outer side, *2 acyl side, *3 side chain or, on linkers, in order; H or OH if unused. Where a SMILES comes first, the peptide text is derived from it. [ ]: non-standard residue; d: D form. Mur = C[C@@H](O[C@H]1[C@H](O)[C@@H](CO)OC(O)[C@@H]1N[*:1])C(=O)[*:2]; d(isoGln) = NC(=O)[C@@H](CCC(=O)[*:2])N[*:1]

In assay [1] the target is T1, extracytoplasmic domain of M. tuberculosis PknB (ED-PknB, PASTA domains) (Mycobacterium tuberculosis, UniProt P9WI81).
T1 construct: GST (N, cleaved yes); made in house; host or cells: Escherichia coli BL21 (DE3)
T1 sequence (P9WI81 354-626): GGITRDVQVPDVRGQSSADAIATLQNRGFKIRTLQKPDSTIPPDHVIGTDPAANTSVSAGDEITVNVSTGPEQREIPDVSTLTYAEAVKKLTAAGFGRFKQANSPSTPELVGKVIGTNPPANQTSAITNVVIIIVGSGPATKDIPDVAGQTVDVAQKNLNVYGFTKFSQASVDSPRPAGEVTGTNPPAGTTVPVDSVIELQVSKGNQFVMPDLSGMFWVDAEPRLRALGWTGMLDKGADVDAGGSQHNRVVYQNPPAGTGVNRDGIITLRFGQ
The assay can be described thus: Surface plasmon resonance (Biacore) binding of synthetic muropeptides to immobilized ED-PknB. Also on record: ka1: unit not given here. The settings on record: for decrease in binding compared to compound 6a: ratio of affinities relative to 6a; for ka1 / ka2 / kd1 / kd2 / Kd: two-state binding model; for ka1 / ka2 / kd1 / kd2: 25°C.

Assay [2] has as its system dormant M. tuberculosis H37Rv cells. As to the kind of experiment: Dormancy and resuscitation assay (most probable number). It counts as cell-based, Mycobacterium tuberculosis H37Rv. The settings on record: for Fold increase in viable cell number relative to cultures grown in Sauton's medium without additive: muropeptide at 10 times the KD of 6c, spent medium 50%, MPN after 2 months at 37°C; for increase in viability relative to cells in fresh medium alone: two independent experiments (6 or 9 months hypoxic), experiment not assigned, most probable number analysis.

The mark [3] stands for this setting: SPR Biacore T100, ED-PknB on CM-5 chip (5,000 RU), HBS-EP pH 7.4, 25°C, Table 1 and text.
Where [4] appears, read: Table S1, SPR, ED-PknB on CM-5 chip (5,000 RU).
Where [5] appears, read: Experiment 1: 6 month old dormant culture.
[6] abbreviates: Experiment 2: 9 month old dormant culture.

Regarding `CC(=O)N[C@H]1C(O)O[C@H](CO)[C@@H](O)[C@@H]1O[C@H](C)C(=O)N[C@@H](C)C(=O)N[C@H](CCC(=O)N[C@@H](CCC[C@@H](N)C(=O)O)C(=O)N[C@H](C)C(=O)N[C@H](C)C(N)=O)C(N)=O` (some centres unmarked) [MPP-DAP (amide/acid) 7], the “decrease in binding compared to compound 6a” value (from here on “decrease in binding”) in assay [1] (SPR) is “about two-fold”. Also, in assay [1] (Table S1, SPR), the ka1 is listed as 4316, the ka2 is 1.4 10^-3 s^-1, the kd1 is listed as 161.5 10^-3 s^-1 and the kd2 is 2.8 10^-3 s^-1.
In the case of `CC(=O)N[C@H]1C(O)O[C@H](CO)[C@@H](O)[C@@H]1O[C@H](C)C(=O)N[C@@H](C)C(=O)N[C@H](CCC(=O)N[C@@H](CCCCN)C(=O)N[C@H](C)C(=O)N[C@H](C)C(N)=O)C(N)=O` (stereo partly drawn) [MPP-Lys (D-Ala) 3a] (Ac-[Mur]A[d(isoGln)]K[dA][dA]-NH2), the Kd in assay [1] (setting [3]) and in assay [1] (setting [4]) was > 500 µM each time.
For `CC(=O)N[C@H]1C(O)O[C@H](CO)[C@@H](O)[C@@H]1O[C@H](C)C(=O)N[C@@H](C)C(=O)N[C@H](CCC(=O)N[C@@H](CCCCN)C(=O)N[C@H](C)C(=O)NCC(N)=O)C(N)=O` (some centres unmarked) [MPP-Lys (Gly) 3b] (Ac-[Mur]A[d(isoGln)]K[dA]G-NH2), the Kd in assay [1] (setting [3]) and in assay [1] (setting [4]) was > 500 µM each time. For the same compound, the “Fold increase in viable cell number relative to cultures grown in Sauton's medium without additive” value in assay [2] (setting [5]) is given as 0.9 fold; in assay [2] (setting [6]), 1 fold. Moreover, the “increase in viability relative to cells in fresh medium alone” value in assay [2] is on record as “No increase in viability”.
Regarding `CC(=O)N[C@H]1C(O)O[C@H](CO)[C@@H](O)[C@@H]1O[C@H](C)C(=O)N[C@@H](C)C(=O)N[C@H](CCC(=O)N[C@@H](CCC[C@@H](N)C(=O)O)C(N)=O)C(N)=O` (some centres unmarked) [MTP-DAP (amide/acid) 5], in assay [1] (Table S1, SPR), the ka1 is on record as 5577, the ka2 is reported as 1.64 10^-3 s^-1, the kd1 is given as 172.9 10^-3 s^-1 and the kd2 is 3.86 10^-3 s^-1.
With `CC(=O)N[C@H]1C(O)O[C@H](CO)[C@@H](O)[C@@H]1O[C@H](C)C(=O)N[C@@H](C)C(=O)N[C@H](CCC(=O)N[C@@H](CCCCN)C(N)=O)C(N)=O` (some centres unmarked) [MTP-Lys (amide) 1], the Kd in assay [1] (setting [3]) and in assay [1] (setting [4]) was > 500 µM each time.
Take `CC(=O)N[C@H]1C(O)O[C@H](CO)[C@@H](O)[C@@H]1O[C@H](C)C(=O)N[C@@H](C)C(=O)N[C@H](CCC(=O)N[C@@H](CCC[C@@H](N)C(=O)O)C(=O)N[C@H](C)C(N)=O)C(=O)O` (some centres unmarked) [MTrP-DAP (acid/acid) 6d]: the “decrease in binding” value in assay [1] (SPR) is reported as “four-fold”. Besides, in assay [1] (Table S1, SPR), the ka1 amounted to 1931, the ka2 is recorded as 2.0 10^-3 s^-1, the kd1 was 168.7 10^-3 s^-1 and the kd2 was 3.2 10^-3 s^-1.
For `CC(=O)N[C@H]1C(O)O[C@H](CO)[C@@H](O)[C@@H]1O[C@H](C)C(=O)N[C@@H](C)C(=O)N[C@H](CCC(=O)N[C@@H](CCCC(N)C(N)=O)C(=O)N[C@H](C)C(N)=O)C(=O)O` (some centres unmarked) [MTrP-DAP (acid/amide) 6b], the “binding to ED-PknB in words” value in assay [1] (SPR) is “did not show measurable binding”. Moreover, the Kd in assay [1] (setting [3]) and in assay [1] (setting [4]) was > 100 µM each time.
As to `CC(=O)N[C@H]1C(O)O[C@H](CO)[C@@H](O)[C@@H]1O[C@H](C)C(=O)N[C@@H](C)C(=O)N[C@H](CCC(=O)N[C@@H](CCC[C@@H](N)C(=O)O)C(=O)N[C@H](C)C(N)=O)C(N)=O` (some centres unmarked) [MTrP-DAP (amide/acid) 6a], the “binding to ED-PknB in words” value in assay [1] (SPR) is recorded as “exhibited the highest affinity”. Moreover, in assay [1] (Table S1, SPR), the ka1 worked out at 3451, the ka2 is given as 1.83 10^-3 s^-1, the kd1 was 100.7 10^-3 s^-1 and the kd2 is on record as 1.4 10^-3 s^-1.
In assay [1] (setting [4]), `CC(=O)N[C@H]1C(O)O[C@H](CO)[C@@H](O)[C@@H]1O[C@H](C)C(=O)N[C@@H](C)C(=O)N[C@H](CCC(=O)N[C@@H](CCC[C@@H](N)C(N)=O)C(=O)N[C@H](C)C(N)=O)C(N)=O` (some centres unmarked) [MTrP-DAP (amide/amide) 6c] showed a Kd of 14.9 µM. For the same compound, in assay [1] (Table S1, SPR), the ka1 worked out at 342.8, the ka2 is recorded as 41.5 10^-3 s^-1, the kd1 is recorded as 57.8 10^-3 s^-1 and the kd2 was 4.02 10^-3 s^-1. The “Fold increase in viable cell number relative to cultures grown in Sauton's medium without additive” value in assay [2] (setting [5]) turned out to be 9 fold. For the same compound, the “Fold increase in viable cell number relative to cultures grown in Sauton's medium without additive” value in assay [2] (setting [6]) came out at 3 fold. For the same compound, the “increase in viability relative to cells in fresh medium alone” value in assay [2] is given as “three; also recorded: nine-fold”.
Regarding `CC(=O)N[C@H](CCC[C@H](NC(=O)CC[C@@H](NC(=O)[C@H](C)NC(=O)[C@@H](C)O[C@H]1[C@H](O)[C@@H](CO)OC(O)[C@@H]1NC(C)=O)C(N)=O)C(=O)N[C@H](C)C(N)=O)C(=O)O` (some centres unmarked) [MTrP-DAP(amide/acid)NHAc 6e], the “decrease in binding” value in assay [1] (SPR) was “six-fold”. In addition, in assay [1] (Table S1, SPR), the ka1 worked out at 354.2, the ka2 is given as 6.6 10^-3 s^-1, the kd1 is 106 10^-3 s^-1 and the kd2 is given as 2.2 10^-3 s^-1.
With `CC(=O)NCCCC[C@H](NC(=O)CC[C@@H](NC(=O)[C@H](C)NC(=O)[C@@H](C)O[C@H]1[C@H](O)[C@@H](CO)OC(O)[C@@H]1NC(C)=O)C(N)=O)C(=O)N[C@H](C)C(N)=O` (some centres unmarked) [MTrP-Lys (amide) NHAc 2b], the Kd in assay [1] (setting [3]) and in assay [1] (setting [4]) was > 500 µM in each case.
As to `C[C@H](N)C(=O)N[C@H](CCC(=O)N[C@@H](CCCCN)C(=O)N[C@H](C)C(=O)N[C@H](C)C(N)=O)C(N)=O` [Peptide 4 (amide)] (H-A[d(isoGln)]K[dA][dA]-NH2; N-terminus assumed), the “binding to ED-PknB in words” value in assay [1] (SPR) was “Neither compound showed significant interaction”.
Turning to `CC(=O)N[C@@H](C)C(=O)N[C@H](CCC(=O)N[C@@H](CCCC(N)C(=O)O)C(=O)N[C@H](C)C(=O)N[C@H](C)C(N)=O)C(N)=O` (some centres unmarked) [Peptide 8 (amide/amide)], the “binding to ED-PknB in words” value in assay [1] (SPR) is “Neither compound showed significant interaction”. Besides, the Kd in assay [1] (setting [3]) and in assay [1] (setting [4]) was > 500 µM throughout.

The values are drawn from article PMC3145798, “The Extracytoplasmic Domain of the Mycobacterium tuberculosis Ser/Thr Kinase PknB Binds Specific Muropeptides and Is Required for PknB Localization” (PLoS Pathogens, 2011).
